# Laboratory results from PMC7269146, “Jingzhaotoxin-X, a gating modifier of Kv4.2 and Kv4.3 potassium channels purified from the venom of the Chinese tarantula Chilobrachys jingzhao” (The Journal of Venomous Animals and Toxins Including …, 2020).
# Where a SMILES comes first, the peptide text is derived from it. Bridges are numbered along the chain shown (N, C = ends).
# Tests used:
# Kv4.3 [1] = target: T1, Kv4.3 (Rattus norvegicus, UniProt Q62897); experiment: whole-cell patch-clamp, Kv4.3 in HEK293t cells, concentration-response and time course; format: cell-based
# T1 construct: expressed in transfected cells; host or cells: HEK293t
# T1 sequence (Q62897 1-655): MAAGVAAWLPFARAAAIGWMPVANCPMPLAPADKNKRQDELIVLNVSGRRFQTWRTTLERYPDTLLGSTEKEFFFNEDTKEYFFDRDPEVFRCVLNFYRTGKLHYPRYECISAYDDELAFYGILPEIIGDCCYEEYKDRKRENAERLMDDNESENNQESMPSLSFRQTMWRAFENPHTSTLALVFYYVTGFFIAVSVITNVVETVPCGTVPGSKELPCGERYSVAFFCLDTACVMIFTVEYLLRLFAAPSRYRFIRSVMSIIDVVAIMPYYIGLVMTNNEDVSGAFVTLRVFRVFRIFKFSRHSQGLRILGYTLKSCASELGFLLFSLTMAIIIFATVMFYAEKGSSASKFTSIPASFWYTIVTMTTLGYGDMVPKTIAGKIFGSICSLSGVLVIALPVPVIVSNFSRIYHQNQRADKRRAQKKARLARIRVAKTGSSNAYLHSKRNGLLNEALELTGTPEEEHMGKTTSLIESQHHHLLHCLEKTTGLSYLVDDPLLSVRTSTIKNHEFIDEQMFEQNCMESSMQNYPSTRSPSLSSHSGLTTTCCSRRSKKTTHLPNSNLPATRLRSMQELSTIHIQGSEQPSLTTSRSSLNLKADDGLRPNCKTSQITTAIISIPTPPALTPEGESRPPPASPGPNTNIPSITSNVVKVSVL
# Excerpt: (§1) Rat cDNA genes encoding Kv4.2 (Accession: NM_031730.2) and Kv4.3 (Accession: AB003587.1) were subcloned to vector pcDNA3.1. In addition, human cDNA genes encoding Nav1.7 (Accession: DQ857292.1) and Nav1.5 (Accession: AB158469.2) were subcloned to vectors pcDNA3.1-mod and pcDNA3.1, separately. Then, Kv4.2, Kv4.3, Nav1.5 and Nav1.7 constructs were transiently transfected into the human embryonic kidney 293t (HEK293t) cells using lipofectamine 2000 (Invitrogen, USA) in accordance with manufacturer protocols. Thereafter, HEK293 cells were inoculated within Dulbecco’s modified Eagle’s medium (DMEM) containing 10% fetal bovine serum (FBS) at 5% CO2 and 37°C. The Kv4.3 channel and the Kv4.2 counterpart were then transfected in the absence of β subunit. Subsequently, cells were incubated with a DNA-lipofectamine mixture (one reporter plasmid for green fluorescence protein and channel constructs) for 4-6 h, and were washed with the fresh medium.
# An EPC-10 patch-clamp amplifier (HEKA, Germany) was employed to record the potassium currents at the configuration of whole-cell patch-clamp under an ambient temperature of 22-25°C. The resistance was 2.0-3.0 MΩ when the recording pipette contained a full volume of internal solution (supplemented with 140 mM KCl, 10 mM HEPES, 2.5 mM MgCl2, 5 mM ATP and 11 mM EGTA). KOH was utilized to adjust the pH to 7.2, while sucrose was employed to adjust the osmolarity to 310 mOsm/L. The culture medium was replaced with an external solution containing 150 mM NaCl, 2.5 mM CaCl2, 10 mM HEPES, 2 mM MgCl2, 5 mM KCl, and 10 mM D-glucose. Similarly, sucrose and NaOH were applied to adjust the osmolarity to 330 mOsm/L and pH to 7.4. […] The series resistance was maintained at about 5 MΩ, with 65-70% compensation. Finally, the leakage currents and linear capacitance were subtracted digitally according to the P/4 protocol. […]
# On-rates were determined by fitting time course data with a single exponential decay function (2): y = Ae^-kx + C, where x is the time, A is the normalized current value before the application of toxin (usually 1.0), and C is the final normalized current value following the block by the toxin. The on-rate (τon) was determined from the inverse of the rate constant k.
# Off-rates were determined by fitting time course data with a double exponential association function (3): y = A(1-e^-kx) + B(1-e^-fx) + C, where x is the time, A or B is the normalized current value after washout of the toxin (usually 1.0 if complete washout occurred), and C is the normalized current value before the washout of the toxin. The off-rate (τoff) was determined from the inverse of the rate constant k or f.
# Kv4.3 [2] = target: T1, Kv4.3; experiment: current-voltage relationship / activation, Kv4.3; format: cell-based
# Excerpt: as §1
# An EPC-10 patch-clamp amplifier (HEKA, Germany) was employed to record the potassium currents at the configuration of whole-cell patch-clamp under an ambient temperature of 22-25°C. The resistance was 2.0-3.0 MΩ when the recording pipette contained a full volume of internal solution (supplemented with 140 mM KCl, 10 mM HEPES, 2.5 mM MgCl2, 5 mM ATP and 11 mM EGTA). KOH was utilized to adjust the pH to 7.2, while sucrose was employed to adjust the osmolarity to 310 mOsm/L. The culture medium was replaced with an external solution containing 150 mM NaCl, 2.5 mM CaCl2, 10 mM HEPES, 2 mM MgCl2, 5 mM KCl, and 10 mM D-glucose. Similarly, sucrose and NaOH were applied to adjust the osmolarity to 330 mOsm/L and pH to 7.4. […] The series resistance was maintained at about 5 MΩ, with 65-70% compensation. Finally, the leakage currents and linear capacitance were subtracted digitally according to the P/4 protocol.
# The voltage-dependent inhibition of Kv4.2 and Kv4.3 channels by JZTX-X was determined by the depolarizing pulses to potentials in 10 mV steps from −80 to +60 mV at an interval of 10 s and the holding potential of -80 mV. […] For quantifying the voltage-depending inhibition of Kv4.2 and Kv4.3 channels, the relative current was drawn based on the membrane potential. Under control conditions, those threshold potentials to initially activate Kv4.2 and Kv4.3 currents were around -40 mV. The JZTX-X treatment at 500 nM inhibited the Kv4.2 and Kv4.3 currents, and then the I-V relation shifted to the right by about 30 mV (from -39.5 ± 1.9 mV to -11.3 ± 1.2 mV ) and 40 mV (from -39.8 ± 1.5 mV to -2.5 ± 0.9 mV ), separately (Fig. 5C and D). Additionally, the channel conductance also shifted rightward by around 30 mV (data not shown).
# Figure 5. […] All data were expressed as mean ± S.E.M (n = 5-7 cells).
smiles,measurement,setting,value
"CC(C)C[C@@H]1NC(=O)[C@H](CCCCN)NC(=O)[C@H](Cc2ccc(O)cc2)NC(=O)[C@@H]2CSSC[C@@H]3NC(=O)[C@H](Cc4ccc(O)cc4)NC(=O)[C@H](Cc4ccccc4)NC(=O)CNC(=O)[C@H](C)NC(=O)[C@H](CSSC[C@H](NC(=O)[C@@H](N)CC(C)C)C(=O)N[C@@H](CO)C(=O)N[C@@H](CCCNC(=N)N)C(=O)N[C@@H](CCC(=O)O)C(=O)NCC(=O)N[C@@H](CCC(=O)O)C(=O)N[C@@H](Cc4ccccc4)C(=O)N2)NC(=O)[C@H](CSSC[C@@H](C(=O)N[C@@H](Cc2ccc(O)cc2)C(=O)N[C@@H](CCCNC(=N)N)C(=O)N[C@@H](CC(N)=O)C(=O)O)NC(=O)[C@H](Cc2c[nH]cn2)NC(=O)[C@H](CC(C)C)NC(=O)[C@H](C(C)C)NC(=O)[C@H](Cc2ccccc2)NC(=O)[C@H](C)NC(=O)[C@H](CCCCN)NC3=O)NC(=O)[C@H](CCCCN)NC(=O)[C@H](CCCNC(=N)N)NC1=O [JZTX-X, Jingzhaotoxin-X] (H-LCSREGEFCYKLRKCCAGFYCKAFVLHCYRN-OH; disulfide 2-16, 9-21, 15-28; N-terminus assumed)",inhibition of Kv4.3 at resting potential without pulses,"Kv4.3 [1]; -80 mV, no pulse during first ~100 s of treatment with 200 nM or 500 nM (order Kv4.2, Kv4.3), same as with pulses at 5 s intervals, n = 5",approximately 95%
same,IC50,"Kv4.3 [1]; HEK293t cells, 1 nM-10 μM, 300-ms step to +20 mV from -80 mV, 22-25°C, pH 7.4, Hill equation fit, n = 8, read-out: IC50 for Kv4.3 channels",210 nM
same,"Hill Coefficient, Kv4.3","Kv4.3 [1]; HEK293t cells, +20 mV from -80 mV, n = 8",1.17
same,reversal of Kv4.3 inhibition after rinsing,"Kv4.3 [1]; in 3 min following rinsing, high JZTX-X dose, HEK293t cells, n = 6",> 95%
same,"I-V relation potential after toxin, Kv4.3","Kv4.3 [2]; 500 nM, control -39.8 ± 1.5 mV, holding -80 mV, n = 5-7 cells",-2.5 ± 0.9 mV
same,"rightward shift of I-V relation, Kv4.3","Kv4.3 [2]; 500 nM, holding -80 mV",~40 mV
same,"rightward shift of channel conductance, Kv4.3","Kv4.3 [2]; data not shown, channel not named separately",about 30 mV
same,voltage dependence of Kv4.3 inhibition,"Kv4.3 [2]; test potentials -10 to +60 mV, 100 nM and 500 nM",dependent on voltage
